Assay results from patent US20250109112A1, “HERBICIDAL COMPOUNDS” (SYNGENTA CROP PROTECTION AG, priority 2022, published 2025).

What was measured:
Format in all cases: in vivo
Conditions in all cases: 250 g/ha, evaluated after 13 days
Eleusine indica (ELEIN) = assay: Post-emergence biological efficacy, ELEIN
Experimental: (§1) Seeds of weeds and/or crops were sown in standard soil in pots (Amaranthus palmeri (AMAPA), Chenopodium album (CHEAL), Euphorbia heterophylla (EPHHL), Ipomoea hederacea (IPOHE), Eleusine indica (ELEIN), Lolium perenne (LOLPE), Digitaria sanguinalis (DIGSA), Setaria faberi (SETFA), Echinochloa crus-galli (ECHCG)). After cultivation for 14 days under controlled conditions in a glasshouse (at 24/19° C., day/night; 16 hours light), the plants were sprayed with an aqueous spray solution derived from the formulation of the technical active ingredient in a small amount of acetone and a special solvent and emulsifier mixture referred to as IF50 (11.12% Emulsogen EL360 TM+44.44% N-methylpyrrolidone+44.44% Dowanol DPM glycol ether), to create a 50 g/l solution which was then diluted using 0.2% Genapol XO80 as diluent to give the desired final dose of test compound.
(§2) The test plants were then grown under controlled conditions in the glasshouse (at 24/18° C., day/night; 15 hours light; 50% humidity) and watered twice daily. After 13 days the test was evaluated (100=total damage to plant; 0=no damage to plant).

[1] = test system: Echinochloa crus-galli (ECHCG); assay: Post-emergence biological efficacy, ECHCG
Experimental: as §1, §2

[2] = test system: Amaranthus palmeri (AMAPA); assay: Post-emergence biological efficacy, AMAPA
Experimental: as §1, §2

Lolium perenne (LOLPE) [3] = assay: Pre-emergence biological efficacy, LOLPE
Experimental: as §1, with “Lolium perenne (LOLPE),” for “Chenopodium album (CHEAL),”, “(IPOHE),” for “(IPOHE), Eleusine indica (ELEIN), Lolium perenne (LOLPE), Digitaria sanguinalis (DIGSA),”, “one day” for “14 days”
as §2

[4] = test system: Euphorbia heterophylla (EPHHL); assay: Post-emergence biological efficacy, EPHHL
Experimental: as §1, §2

[5] = test system: Euphorbia heterophylla (EPHHL); assay: Pre-emergence biological efficacy, EPHHL
Experimental: as §1, with “Lolium perenne (LOLPE),” for “Chenopodium album (CHEAL),”, “(IPOHE),” for “(IPOHE), Eleusine indica (ELEIN), Lolium perenne (LOLPE), Digitaria sanguinalis (DIGSA),”, “one day” for “14 days”
as §2

Setaria faberi (SETFA) [6] = assay: Post-emergence biological efficacy, SETFA
Experimental: as §1, §2

Lolium perenne (LOLPE) [7] = assay: Post-emergence biological efficacy, LOLPE
Experimental: as §1, §2

[8] = test system: Amaranthus palmeri (AMAPA); assay: Pre-emergence biological efficacy, AMAPA
Experimental: as §1, with “Lolium perenne (LOLPE),” for “Chenopodium album (CHEAL),”, “(IPOHE),” for “(IPOHE), Eleusine indica (ELEIN), Lolium perenne (LOLPE), Digitaria sanguinalis (DIGSA),”, “one day” for “14 days”
as §2

[9] = test system: Ipomoea hederacea (IPOHE); assay: Pre-emergence biological efficacy, IPOHE
Experimental: as §1, with “Lolium perenne (LOLPE),” for “Chenopodium album (CHEAL),”, “(IPOHE),” for “(IPOHE), Eleusine indica (ELEIN), Lolium perenne (LOLPE), Digitaria sanguinalis (DIGSA),”, “one day” for “14 days”
as §2

[10] = test system: Chenopodium album (CHEAL); assay: Post-emergence biological efficacy, CHEAL
Experimental: as §1, §2

[11] = test system: Digitaria sanguinalis (DIGSA); assay: Post-emergence biological efficacy, DIGSA
Experimental: as §1, §2

[12] = test system: Echinochloa crus-galli (ECHCG); assay: Pre-emergence biological efficacy, ECHCG
Experimental: as §1, with “Lolium perenne (LOLPE),” for “Chenopodium album (CHEAL),”, “(IPOHE),” for “(IPOHE), Eleusine indica (ELEIN), Lolium perenne (LOLPE), Digitaria sanguinalis (DIGSA),”, “one day” for “14 days”
as §2

Setaria faberi (SETFA) [13] = assay: Pre-emergence biological efficacy, SETFA
Experimental: as §1, with “Lolium perenne (LOLPE),” for “Chenopodium album (CHEAL),”, “(IPOHE),” for “(IPOHE), Eleusine indica (ELEIN), Lolium perenne (LOLPE), Digitaria sanguinalis (DIGSA),”, “one day” for “14 days”
as §2

[14] = test system: Ipomoea hederacea (IPOHE); assay: Post-emergence biological efficacy, IPOHE
Experimental: as §1, §2

SMILES | damage to plant (100=total damage; 0=no damage), ELEIN (Eleusine indica (ELEIN)) | damage to plant (100=total damage; 0=no damage), ECHCG [1] | damage to plant (100=total damage; 0=no damage), AMAPA [2] | damage to plant (100=total damage; 0=no damage), LOLPE (Lolium perenne (LOLPE) [3]) | damage to plant (100=total damage; 0=no damage), EPHHL [4] | damage to plant (100=total damage; 0=no damage), EPHHL [5] | damage to plant (100=total damage; 0=no damage), SETFA (Setaria faberi (SETFA) [6]) | damage to plant (100=total damage; 0=no damage), LOLPE (Lolium perenne (LOLPE) [7]) | damage to plant (100=total damage; 0=no damage), AMAPA [8] | damage to plant (100=total damage; 0=no damage), IPOHE [9] | damage to plant (100=total damage; 0=no damage), CHEAL [10] | damage to plant (100=total damage; 0=no damage), DIGSA [11] | damage to plant (100=total damage; 0=no damage), ECHCG [12] | damage to plant (100=total damage; 0=no damage), SETFA (Setaria faberi (SETFA) [13]) | damage to plant (100=total damage; 0=no damage), IPOHE [14]
COC(=O)CCOC(=O)C(C)Sc1cc(-n2c(=O)n(C)c(=S)n(C)c2=O)c(F)cc1Cl (stereo not drawn) [Compound 9-245, (3-methoxy-3-oxo-propyl) 2-[2-chloro-5-(3,5-dimethyl-2,6-dioxo-4-thioxo-1,3,5-triazinan-1-yl)-4-fluoro-phenyl]sulfanylpropanoate] | 80 | 70 | 100 | 80 | 90 | 100 | 40 | 100 | 100 | 90 | 100 | 30 | 80 | 100 | 100
COC(=O)CCNC(=O)C(C)Sc1cc(-n2c(=O)n(C)c(=S)n(C)c2=O)c(F)cc1Cl (stereo not drawn) [Compound 9-272, methyl 3-[2-[2-chloro-5-(3,5-dimethyl-2,6-dioxo-4-thioxo-1,3,5-triazinan-1-yl)-4-fluoro-phenyl]sulfanylpropanoylamino]propanoate] | 80 | 40 | 80 | 90 | 90 | 100 | 90 | 100 | 100 | 100 | 90 | 70 | 80 | 100 | 100
